Experimental data taken from the NIST ThermoML archive (doi:10.1016/j.jct.2018.09.029).
± gives the expanded uncertainty stated by the source.

Test: Boiling temperature at pressure P
Conditions: 82.6 kPa; Liquid; Ebulliometric method (Recirculating still)

- Boiling temperature at pressure P: 94.41 ± 0.63 °C
SMILES: O [water]
